Laboratory results taken from ChEMBL document CHEMBL1124105, “Analogues of gamma-hydroxybutyric acid. Synthesis and binding studies” (J Med Chem, 1988).
Activity calls are given as the source filed them. The calls are words filed in the database; no cut-off is given here.

Assays:
[1] = molecular target: T1, Gamma-hydroxybutyrate receptor (Rattus norvegicus) (UniProt Q6RY99); settings: at 1 µM
T1 sequence (whole entry): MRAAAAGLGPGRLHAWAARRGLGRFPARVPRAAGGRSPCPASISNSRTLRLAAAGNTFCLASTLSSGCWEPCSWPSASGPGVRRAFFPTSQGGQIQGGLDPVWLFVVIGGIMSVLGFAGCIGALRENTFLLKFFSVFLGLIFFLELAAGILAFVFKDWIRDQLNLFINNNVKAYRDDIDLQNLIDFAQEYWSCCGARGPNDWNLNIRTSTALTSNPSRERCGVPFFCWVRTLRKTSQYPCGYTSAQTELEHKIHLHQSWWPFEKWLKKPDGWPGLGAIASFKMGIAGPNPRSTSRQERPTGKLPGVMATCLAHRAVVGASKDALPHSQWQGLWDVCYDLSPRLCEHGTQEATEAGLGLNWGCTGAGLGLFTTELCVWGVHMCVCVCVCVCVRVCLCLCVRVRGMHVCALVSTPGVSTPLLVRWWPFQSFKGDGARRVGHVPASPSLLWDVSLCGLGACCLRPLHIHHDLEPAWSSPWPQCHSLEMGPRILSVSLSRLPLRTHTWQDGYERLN

[2] = molecular target: T1, Gamma-hydroxybutyrate receptor (Rattus norvegicus); settings: at 10 µM
[3] = molecular target: T1, Gamma-hydroxybutyrate receptor (Rattus norvegicus); settings: at 10 µM; remark: listed apart in the source

| Compound | inhibition [1] | inhibition [2] | inhibition [3] |
| --- | --- | --- | --- |
| C/C(=C\C(=O)O)CO | 11% | 55% | inactive |
| CCC(CO)CC(=O)O (configuration not stated) | – | 43% | – |
| CC(CCO)C(=O)O (configuration not stated) | – | 24% | – |
| O=C(O)CCCO | 35% | 55% | – |
| CC(CO)C(C)C(=O)O (configuration not stated) | – | – | inactive |
| O=C(O)CC(CO)Cc1ccccc1 (configuration not stated) | – | – | inactive |
| O=S(=O)([O-])CCO.[Na+] | – | – | inactive |
| O=C(O)/C=C/C(O)C1CCCCC1 (configuration not stated) | 13% | 46% | – |
| CC(CO)CC(=O)O (configuration not stated) | – | 59% | – |
| O=C(O)/C=C/C(O)c1ccccc1 (configuration not stated) | 39% | 70% | – |
| O=S(=O)(O)CCCO | – | – | inactive |
| NCCCC(=O)O | – | – | inactive |
| O=C(O)CCC(O)c1ccccc1 (configuration not stated) | 13% | 56% | – |
| O=C(O)CCO | – | – | inactive |
| O=C(O)/C=C/CO | 44% | 64% | – |
| O=C(O)CC(CO)c1ccccc1 (configuration not stated) | – | – | inactive |
| O=S(=O)(O)CCCCO | – | – | inactive |
| CC(C)C(CO)CC(=O)O (configuration not stated) | – | – | inactive |
| OCCCCO | – | – | inactive |
| CC(O)CCC(=O)O (configuration not stated) | 12% | 63% | – |
| O=C(O)CCCCO | 22% | 53% | – |
| O=C(O)C(CCO)c1ccccc1 (configuration not stated) | – | – | inactive |
| O=C1C=CCO1 | – | – | inactive |
| CCCC(CO)CC(=O)O (configuration not stated) | – | 5% | – |
| O=C1CCCO1 | – | – | inactive |
| O=C(O)/C=C(/CO)c1ccccc1 | 21% | 34% | – |
| C=C(C)[C@@H]1[C@H]2OC(=O)[C@@H]1[C@]1(O)C[C@H]3OC34C(=O)O[C@H]2[C@@]41C.CC(C)(O)[C@@H]1[C@H]2OC(=O)[C@@H]1[C@]1(O)C[C@H]3OC34C(=O)O[C@H]2[C@@]41C (some centres not stated) | – | – | inactive |
